Measured values from the supplement of paper PMC11061612.

Tests used:
SN-38 = compound: CCc1c2c(nc3ccc(O)cc13)-c1cc3c(c(=O)n1C2)COC(=O)[C@]3(O)CC [SN-38]; settings: max 0.3 µM
How it was run: (§1)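 Cancer cell lines in 1536-well plates (7.5 μl DMEM/F12 or RPMI, 10% FBS) were held 24 hours at 37°C and 5% CO2 and then dosed for 72 hours at a final DMSO of typically 0.2%. Viability was taken from CellTiter-Glo 2.0 luminescence, scaled between blank-well and DMSO-well means. Curves were fitted as two-parameter logistic models with a non-linear mixed effects model, from which the single-agent IC50 was taken.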

AZD2811 = compound: CCN(CCO)CCCOc1ccc2c(Nc3cc(CC(=O)Nc4cccc(F)c4)[nH]n3)ncnc2c1 [AZD2811]; settings: max 1 µM
How it was run: as §1

AZD0156 = compound: CN(C)CCCOc1ccc(-c2ccc3ncc4c(c3c2)n(C2CCOCC2)c(=O)n4C)cn1 [AZD0156]; settings: max 3 µM
How it was run: as §1

AZD7648 = compound: Cc1cc2ncnn2cc1Nc1ncc2c(n1)n(C1CCOCC1)c(=O)n2C [AZD7648]; settings: max 10 µM
How it was run: as §1

Gefitinib = compound: COc1cc2ncnc(Nc3ccc(F)c(Cl)c3)c2cc1OCCCN1CCOCC1 [Gefitinib]; settings: max 10 µM
How it was run: as §1

AZD8186 = compound: C[C@@H](Nc1cc(F)cc(F)c1)c1cc(C(=O)N(C)C)cc2c(=O)cc(N3CCOCC3)oc12 [AZD8186]; settings: max 3 µM
How it was run: as §1

Palbociclib = compound: CC(=O)c1c(C)c2cnc(Nc3ccc(N4CCNCC4)cn3)nc2n(C2CCCC2)c1=O [Palbociclib]; settings: max 10 µM
How it was run: as §1

Trametinib = compound: CC(=O)Nc1cccc(-n2c(=O)n(C3CC3)c(=O)c3c(Nc4ccc(I)cc4F)n(C)c(=O)c(C)c32)c1 [Trametinib]; settings: max 1 µM
How it was run: as §1

Crizotinib = compound: C[C@@H](Oc1cc(-c2cnn(C3CCNCC3)c2)cnc1N)c1c(Cl)ccc(F)c1Cl [Crizotinib]; settings: max 10 µM
How it was run: as §1

AZD5991 = compound: Cc1c2c(nn1C)CSCc1cc(n(C)n1)CSc1cc(c3ccccc3c1)OCCCc1c(C(=O)O)n(C)c3c-2c(Cl)ccc13 [AZD5991]; settings: max 1 µM
How it was run: as §1

Savolitinib = compound: C[C@@H](c1ccc2nccn2c1)n1nnc2ncc(-c3cnn(C)c3)nc21 [Savolitinib]; settings: max 1 µM
How it was run: as §1

Olaparib = compound: O=C(c1cc(Cc2n[nH]c(=O)c3ccccc23)ccc1F)N1CCN(C(=O)C2CC2)CC1 [Olaparib]
How it was run: as §1

AZD1775 = compound: C=CCn1c(=O)c2cnc(Nc3ccc(N4CCN(C)CC4)cc3)nc2n1-c1cccc(C(C)(C)O)n1 [AZD1775]; settings: max 3 µM
How it was run: as §1

AZD5153 = compound: COc1nnc2ccc(N3CCC(c4ccc(OCCN5CCN(C)C(=O)[C@H]5C)cc4)CC3)nn12 [AZD5153]; settings: max 1 µM
How it was run: as §1

AZD4320 = compound: CN(CC[C@H](CSC1=CC=CC=C1)NC2=C(C=C(C=C2)S(=O)(=O)NC(=O)C3=CC=C(C=C3)N4CCC(CC4)[C@H](C5=CC=CC=C5C6=CC=C(C=C6)Cl)O)S(=O)(=O)C(F)(F)F)CCO [AZD4320]; settings: max 1 µM
How it was run: as §1

Venetoclax = compound: CC1(C)CCC(CN2CCN(c3ccc(C(=O)NS(=O)(=O)c4ccc(NCC5CCOCC5)c([N+](=O)[O-])c4)c(Oc4cnc5[nH]ccc5c4)c3)CC2)=C(c2ccc(Cl)cc2)C1 [Venetoclax]; settings: max 1 µM
How it was run: as §1

Lapatinib = compound: CS(=O)(=O)CCNCc1ccc(-c2ccc3ncnc(Nc4ccc(OCc5cccc(F)c5)c(Cl)c4)c3c2)o1 [Lapatinib]; settings: max 10 µM
How it was run: as §1

AZD6738 = compound: C[C@@H]1COCCN1C2=NC(=NC(=C2)C3(CC3)[S@](=N)(=O)C)C4=C5C=CNC5=NC=C4 [AZD6738]; settings: max 10 µM
How it was run: as §1

Doxorubicin = compound: COc1cccc2c1C(=O)c1c(O)c3c(c(O)c1C2=O)C[C@@](O)(C(=O)CO)C[C@@H]3O[C@H]1C[C@H](N)[C@H](O)[C@H](C)O1 [Doxorubicin]; settings: max 1 µM
How it was run: as §1

AZD1390 = compound: CC(C)n1c(=O)n(C)c2cnc3cc(F)c(-c4ccc(OCCCN5CCCCC5)nc4)cc3c21 [AZD1390]; settings: max 0.3 µM
How it was run: as §1

SG3199 = compound: CC1=CN2[C@@H](C1)C=NC3=CC(=C(C=C3C2=O)OC)OCCCCCOC4=C(C=C5C(=C4)N=C[C@@H]6CC(=CN6C5=O)C)OC [SG3199]; settings: max 0.001 µM
How it was run: as §1

Dasatinib = compound: CC1=C(C(=CC=C1)Cl)NC(=O)C2=CN=C(S2)NC3=CC(=NC(=N3)C)N4CCN(CC4)CCO [Dasatinib]; settings: max 2 µM
How it was run: as §1

Taselisib = compound: Cc1nc(-c2cn3c(n2)-c2ccc(-c4cnn(C(C)(C)C(N)=O)c4)cc2OCC3)n(C(C)C)n1 [Taselisib]; settings: max 10 µM
How it was run: as §1

Capivasertib = compound: C1CN(CCC1(C(=O)N[C@@H](CCO)C2=CC=C(C=C2)Cl)N)C3=NC=NC4=C3C=CN4 [Capivasertib]
How it was run: as §1

Alisertib = compound: COc1cc(Nc2ncc3c(n2)-c2ccc(Cl)cc2C(c2c(F)cccc2OC)=NC3)ccc1C(=O)O [Alisertib]; settings: max 10 µM
How it was run: as §1

Prexasertib = compound: COc1cccc(OCCCN)c1-c1cc(Nc2cnc(C#N)cn2)n[nH]1 [Prexasertib]; settings: max 1 µM
How it was run: as §1

Selumetinib = compound: Cn1cnc2c(F)c(Nc3ccc(Br)cc3Cl)c(C(=O)NOCCO)cc21 [Selumetinib]
How it was run: as §1

Row | Cell Line | IC50, cell viability 72 h (SN-38) | IC50, cell viability 72 h (AZD2811) | IC50, cell viability 72 h (AZD0156) | IC50, cell viability 72 h (AZD7648) | IC50, cell viability 72 h (Gefitinib) | IC50, cell viability 72 h (AZD8186) | IC50, cell viability 72 h (Palbociclib) | IC50, cell viability 72 h (Trametinib) | IC50, cell viability 72 h (Crizotinib) | IC50, cell viability 72 h (AZD5991) | IC50, cell viability 72 h (Savolitinib) | IC50, cell viability 72 h (Olaparib; max 10 µM) | IC50, cell viability 72 h (AZD1775) | IC50, cell viability 72 h (AZD5153) | IC50, cell viability 72 h (AZD4320) | IC50, cell viability 72 h (Venetoclax) | IC50, cell viability 72 h (Lapatinib) | IC50, cell viability 72 h (AZD6738) | IC50, cell viability 72 h (Doxorubicin) | IC50, cell viability 72 h (AZD1390) | IC50, cell viability 72 h (SG3199) | IC50, cell viability 72 h (Dasatinib) | IC50, cell viability 72 h (Taselisib) | IC50, cell viability 72 h (Capivasertib; max 10 µM) | IC50, cell viability 72 h (Alisertib) | IC50, cell viability 72 h (Prexasertib) | IC50, cell viability 72 h (Selumetinib; max 10 µM) | IC50, cell viability 72 h (Capivasertib; max 3 µM) | IC50, cell viability 72 h (Selumetinib; max 3 µM) | IC50, cell viability 72 h (Olaparib; max 3 µM)
1 | KM12 (Colorectal Carcinoma) | 90.8 nM | > 1000 nM | > 3000 nM | > 10000 nM | > 10000 nM | > 3000 nM | 1170 nM | 35.6 nM | 271 nM | > 1000 nM | > 1000 nM | > 10000 nM | 454 nM | 287 nM | > 1000 nM | > 1000 nM | > 10000 nM | 5540 nM | 357 nM | > 300 nM | > 1 nM | > 2000 nM | 7180 nM | 2280 nM | 1110 nM | 66.6 nM | 1300 nM | – | – | –
2 | KYSE-180 (Esophageal Squamous Cell Carcinoma) | > 300 nM | > 1000 nM | > 3000 nM | > 10000 nM | > 10000 nM | > 3000 nM | > 10000 nM | > 1000 nM | > 10000 nM | 642 nM | > 1000 nM | > 10000 nM | 440 nM | > 1000 nM | > 1000 nM | > 1000 nM | > 10000 nM | 5360 nM | > 1000 nM | > 300 nM | > 1 nM | 1730 nM | 4520 nM | > 10000 nM | > 10000 nM | 22.3 nM | > 10000 nM | – | – | –
3 | LN-18 (Glioblastoma) | 138 nM | > 1000 nM | > 3000 nM | > 10000 nM | > 10000 nM | 2530 nM | > 10000 nM | > 1000 nM | > 10000 nM | > 1000 nM | > 1000 nM | > 10000 nM | > 3000 nM | 342 nM | > 1000 nM | > 1000 nM | 9520 nM | 8830 nM | > 1000 nM | > 300 nM | > 1 nM | > 2000 nM | 5680 nM | > 10000 nM | 1400 nM | 209 nM | > 10000 nM | – | – | –
4 | MEL-JUSO (Melanoma) | > 300 nM | > 1000 nM | > 3000 nM | > 10000 nM | > 10000 nM | > 3000 nM | > 10000 nM | 430 nM | > 10000 nM | > 1000 nM | > 1000 nM | > 10000 nM | > 3000 nM | > 1000 nM | > 1000 nM | > 1000 nM | > 10000 nM | > 10000 nM | > 1000 nM | > 300 nM | > 1 nM | > 2000 nM | > 10000 nM | > 10000 nM | > 10000 nM | 125 nM | > 10000 nM | – | – | –
5 | MFM-223 (Breast Carcinoma) | > 300 nM | > 1000 nM | > 3000 nM | > 10000 nM | > 10000 nM | > 3000 nM | > 10000 nM | > 1000 nM | > 10000 nM | > 1000 nM | > 1000 nM | > 10000 nM | 2300 nM | > 1000 nM | > 1000 nM | > 1000 nM | > 10000 nM | 5200 nM | > 1000 nM | > 300 nM | > 1 nM | > 2000 nM | 1160 nM | 1620 nM | 633 nM | 59.9 nM | > 10000 nM | – | – | –
6 | MOLT-16 (T-Lymphoblastic Leukemia) | 2.33 nM | 12.4 nM | > 3000 nM | > 10000 nM | > 10000 nM | > 3000 nM | 420 nM | > 1000 nM | 1770 nM | 51.5 nM | > 1000 nM | 5600 nM | 168 nM | 76.2 nM | 16.3 nM | 308 nM | 6350 nM | 557 nM | 46.7 nM | > 300 nM | > 1 nM | > 2000 nM | 1110 nM | 811 nM | 29.1 nM | 11.2 nM | > 10000 nM | – | – | –
7 | NCI-H847 (Small Cell Lung Carcinoma) | 16 nM | 58.4 nM | > 3000 nM | 5200 nM | – | 1950 nM | – | > 1000 nM | – | 665 nM | – | 6860 nM | 143 nM | – | 15.6 nM | > 1000 nM | – | 901 nM | 281 nM | – | > 1 nM | – | 2330 nM | – | 10.1 nM | 15.1 nM | – | > 3000 nM | > 3000 nM | –
8 | P12-ICHIKAWA (T-Lymphoblastic Leukemia) | 1.61 nM | 15.4 nM | > 3000 nM | > 10000 nM | > 10000 nM | > 3000 nM | 1600 nM | > 1000 nM | 2230 nM | 252 nM | > 1000 nM | – | 262 nM | 89.1 nM | 37.3 nM | > 1000 nM | > 10000 nM | 1020 nM | – | > 300 nM | – | > 2000 nM | > 10000 nM | 3170 nM | 38.1 nM | 17.3 nM | > 10000 nM | – | – | > 3000 nM
